Measured values taken from patent publication US20130174483A1, “PLANT ARTIFICIAL SEEDS AND METHODS FOR THE PRODUCTION THEREOF” (E I DU PONT DE NEMOURS AND COMPANY, priority 2011, published 2013).

System: sugarcane plantlet, cultivar CPO-1372
Conditions: in vivo
Procedure: Wax paper containers were cut into 4 cm and 7 cm lengths. One open end of each container was secured with either a 38 um thick LDL film, prepared as described in Example 25, or a 254 um thick soybean oil gel film. The latter was prepared by dissolving Kraton® A1535 poly(styrene-b-ethylene-co-butylene-co-styrene-b-styrene) triblock polymer in soybean oil (MP Biomedicals, Solon, Ohio) at 9 wt. % and 155° C., and casting the hot solution on a glass substrate using a doctor blade with a 5 cm wide and 254 um thick gap, preheated to 155° C. Upon cooling to room temperature, the physical gelation of the triblock polymer in the oil yielded a solid, but highly deformable film. LDL film was affixed to the wax paper container using a thin layer of cyanoacrylate adhesive (Sigma-Aldrich, St. Louis, Mo.). Soybean oil gel film was affixed by heating the film, still adhered to the glass substrate, to near its sol-gel transition (approximately 80° C.), pressing the end of the wax-paper container into the softened film, and cooling to room temperature to re-solidify the film.
The 4 and 7 cm wax paper containers, having their bottom ends secured with LDL or soybean oil gel film, were then loaded approximately one-third full with dry Metro-Mix® 360 growing media. One regenerated sugarcane plantlet was then added to each container. […]

## poly(lactide-b-dimethylsiloxane-b-lactide) [LDL]
  discoloration of plantlet shoots in contact with the closure (phytotoxicity): no discoloration
